Data set [1] relates to mD4-VV hybrid virus. Put plainly: microbe, parasite or virus in culture. Format: cell-based, vaccinia hybrid virus containing mD4 of MCV. The following applies: for EC50: Hybrid virus.
The target of data set [2] is T1, mD4 (Molluscum contagiosum virus, UniProt Q98260). The data set can be described thus: Thermal shift (differential scanning fluorimetry) assay with purified 6His-mD4. The data set is classed as binding. The note with it: difference to DMSO mock treatment. The procedure: Thermal shift assay. Thermal shift (differential scanning fluorimetry) assay was performed as previously described. Briefly, 5 μM purified 6His-mD4 was mixed with compounds in thin-wall PCR 96-plate wells at 20 μL total volume containing 25 mM phosphate buffer (pH 6.8), 0.2 M NaCl, 2.5% glycerol, 2% DMSO, 0.005% (w/v) Triton-X100, and 1× Sypro Orange. Fluorescence intensities were monitored using the Applied Biosystems 7500 Fast Real-Time PCR system (Carlsbad, Calif.) at 582 nm from 25-80 ° C. at a rate of 1° C./min To generate melting temperature (Tm), protein melting curves were plotted on GraphPad Prism and fitted to the Boltzmann sigmoidal model. Thermal shift (ΔTm) is the difference between the 2% DMSO mock-treatment and inhibitor treatment. All experiments were duplicated and repeated independently.
T1 sequence (Q98260 1-226): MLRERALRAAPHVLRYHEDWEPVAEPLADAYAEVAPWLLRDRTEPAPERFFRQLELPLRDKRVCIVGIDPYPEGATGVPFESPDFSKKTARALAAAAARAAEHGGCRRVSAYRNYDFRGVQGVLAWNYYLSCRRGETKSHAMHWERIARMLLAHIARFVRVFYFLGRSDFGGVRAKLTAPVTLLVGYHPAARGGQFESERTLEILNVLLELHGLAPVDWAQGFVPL

In data set [3] the test system is mD4-VV hybrid virus. Format: cell-based, vaccinia hybrid virus containing mD4 of MCV.
The nature of data set [4]: Half-life stability in mouse liver microsomes. Format: in vitro ADME. The following applies: for half-life: mouse, liver microsomes. Background: Liver microsomes are a subcellular fraction often used to study metabolism.
Data set [5] has as its system BSC-1 cells. The following applies: as previously determined; read-out: cytotoxicity CC50 on BSC-1 cells; cited from earlier work.
Data set [6] deals with vD4-VV rescue virus. Put plainly: microbe, parasite or virus in culture. Format: cell-based. The note with it: Orthopoxvirus vaccinia, BSC-1, 16 h, read-out: EC50, plaque reduction of vD4-VV rescue virus.
The target in data set [7] is mD4-dependent processive DNA synthesis (6His-mD4, vA20 and vE9) (Molluscum contagiosum virus, UniProt Q98260). Put plainly: biochemical. Further details: species or system molluscum contagiosum virus / vaccinia virus.
Chain of mD4-dependent processive DNA synthesis (6His-mD4, vA20 and vE9) (Q98260 1-226): as above
The subject of data set [8] is mD4-VV hybrid virus. Put plainly: mD4-VV infection of 3-D human skin organ culture (viral titer and histology). The note with it: for viral titer of mD4-VV in 3-D human skin organ culture: 3 days post infection, compared to DMSO drug vehicle. Format: cell-based.
Data set [9] deals with T1, mD4. Put plainly: Binding to immobilized mD4 by SPR (Surface Plasmon Resonance). The following applies: steady-state response, 1:1 binding model, 0-250 μM, 1% DMSO; read-out: binding affinity KD to mD4 protein by SPR. The procedure: The binding of compound 2 to mD4 was determined by SPR. mD4 was immobilized onto a biosensor chip at ˜3500 RU, and compound 2 was injected at 0-250 μM in buffer with 1% DMSO. The binding affinity KD was determined from the plot of steady-state response (Req) against compound 2 concentrations and fitting to a 1:1 binding model (FIG. 10).
(In general: SPR reads the build-up and loss of mass on a sensor chip optically.)

Data set [10] concerns 2-D keratinocyte cultures. The data set can be described thus: Toxicity on 2-D keratinocyte cultures. Format: cell-based. The following applies: at the concentrations used in the 3-D culture experiment.
Where [11] appears, read: BSC-1, 16 h, read-out: EC50, plaque reduction of mD4-VV hybrid virus.

Entries after “also recorded” stand apart in the source; their conditions may differ. Read-outs that look alike come from different tables or passages of the source.

Broadly, the EC50 is the concentration giving half of the maximal effect. `O=[N+]([O-])c1cccc(COc2ccccc2CNc2ccccc2O)c1` [Compound 11, 2-[[2-[(3-nitrophenyl)methoxy]phenyl]methylamino]phenol]: the EC50 in data set [1] (BSC-1, read-out: EC50 (mD4-VV)) was determined as 17.7 µM.
On the same count and under the same terms, to `O=c1[nH]c2ccc(NCc3cc(Br)ccc3OCc3ccccc3)cc2[nH]1` [Compound 7, 5-[(2-benzyloxy-5-bromo-phenyl)methylamino]-1,3-dihydrobenzimidazol-2-one] belongs 11 µM.
Turning to `c1ccc(COc2ccccc2CNc2ccc(-c3cnco3)cc2)cc1` [Compound 13, N-[(2-benzyloxyphenyl)methyl]-4-oxazol-5-yl-aniline], in [1] (BSC-1, read-out: EC50 (mD4-VV)), the EC50 was determined as 14.4 µM.
For the compound `O=c1[nH]c2ccc(NCc3ccccc3OCc3ccc(Cl)cc3)cc2[nH]1` [Compound 4, 5-[[2-[(4-chlorophenyl)methoxy]phenyl]methylamino]-1,3-dihydrobenzimidazol-2-one], in data set [1] (BSC-1, read-out: EC50 (mD4-VV)), the EC50 was 11 µM.
On to `O=[N+]([O-])c1cccc(COc2ccccc2CNc2ccc(O)cc2)c1` [Compound 9, 4-[[2-[(3-nitrophenyl)methoxy]phenyl]methylamino]phenol], for which the EC50 in data set [1] (BSC-1, read-out: EC50 (mD4-VV)) is 13.3 µM.
On the same count and under the same terms, with `Oc1ccc(NCc2ccccc2OCc2ccccc2)c(F)c1` [Compound 12, 4-[(2-benzyloxyphenyl)methylamino]-3-fluoro-phenol] the figure was 19.4 µM.
Still for that read-out and setting: with `c1ccc(COc2ccccc2CNc2ccc3[nH]ncc3c2)cc1` [Compound 14, N-[(2-benzyloxyphenyl)methyl]-1H-indazol-5-amine] the figure was 7.9 µM; with `NS(=O)(=O)c1ccc(NCc2cc(Cl)ccc2OCc2ccccc2)cc1` [Compound 3, 4-[(2-benzyloxy-5-chloro-phenyl)methylamino]benzenesulfonamide], 13.9 µM.
Turning to `Nc1nc2c(ncn2COCCO)c(=O)[nH]1` [acyclovir, reference compound], the “inhibitory effect in plaque reduction assay” value in data set [1] is reported as “no inhibitory effect”.
Broadly, the half-life is how long it takes for the measured level to halve. For orientation: CC50 means the concentration that lowers cell viability or growth by half. The term IC50 denotes the concentration at which inhibition is half-maximal. In the case of `Oc1ccc(NCc2ccccc2OCc2ccccc2)cc1` [Compound 10, 4-[(2-benzyloxyphenyl)methylamino]phenol], the “Thermal shift (ΔTm) of 6His-mD4” value in [2] (10 μM compound) amounted to 2.2 °C; in [2] (40 μM compound), 3.3 °C. Further, the EC50 in data set [1] (setting [11]) came out at 14 µM; in data set [1] (BSC-1, read-out: EC50 (mD4-VV)) it was 35.6 µM; in [6] it was 11 µM. In data set [3], the “mD4-VV genomic DNA accumulation” value is “completely prevented”. Further, the half-life in data set [4] was 6.7 min. In addition, the cytotoxic concentration (CC50) in data set [5] was 175 µM. Also, in [7], the IC50 came to 28 µM.
In the case of `Oc1ccc(NCc2cc(Br)ccc2OCc2ccc(F)cc2)cc1` [Compound 1, 4-[[5-bromo-2-[(4-fluorophenyl)methoxy]phenyl]methylamino]phenol], in [1] (BSC-1, read-out: EC50 (mD4-VV)), the EC50 worked out at 19.9 µM.
As usually defined, the Kd is the concentration at which binding is half-saturated. With `O=c1[nH]c2ccc(NCc3ccccc3OCc3ccccc3)cc2[nH]1` [Compound 2, 5-[(2-benzyloxyphenyl)methylamino]-1,3-dihydrobenzimidazol-2-one], the “viral titer of mD4-VV in 3-D human skin organ culture” value in data set [8] is on record as “blocks mD4-VV viral infection”; in data set [8] (listed as compound 2) it was “significant decline in the viral titer”. Moreover, the “histological analysis of 3-D human skin organ culture infected with mD4-VV” value in data set [8] (H&E stained cross-section, 3 days after infection) is reported as “abundant population of stained keratinocytes was observed; also recorded: protection of the 3-D human skin organ culture”. Also, in data set [9], the Kd was determined as 32.8 µM. In addition, the EC50 in data set [1] (setting [11]) amounted to 3 µM; in data set [1] (BSC-1, read-out: EC50 (mD4-VV)), 10 µM. In addition, in data set [4] (compound 2 versus compound 10), the “increase of half-life in mouse liver microsomes above compound 10” value is recorded as “greater than 5 fold”. In data set [4], this compound showed a half-life of 36 min. For the same compound, the “toxicity on 2-D keratinocyte cultures” value in data set [10] was “not toxic”. Also, the “blocking processive DNA synthesis in vitro” value in data set [7] is “specific blocking processive DNA synthesis in vitro”.
For the compound `O=c1[nH]c2ccc(NCc3ccccc3OCc3ccc(F)cc3)cc2[nH]1` [Compound 6, 5-[[2-[(4-fluorophenyl)methoxy]phenyl]methylamino]-1,3-dihydrobenzimidazol-2-one], the EC50 in data set [1] (BSC-1, read-out: EC50 (mD4-VV)) was determined as 13.9 µM.
In the case of `O=c1[nH]c2ccc(NCc3cc(Cl)ccc3OCc3ccccc3F)cc2[nH]1` [Compound 8, 5-[[5-chloro-2-[(2-fluorophenyl)methoxy]phenyl]methylamino]-1,3-dihydrobenzimidazol-2-one], the EC50 in [1] (BSC-1, read-out: EC50 (mD4-VV)) came to 11 µM.

(Values after US10112895B2, “Antivirals against molluscum contagiosum virus” (priority 2014, dated 2018).)
